{
  "source": "patent US20250064799A1",
  "about": "“ORAL FORMULATIONS OF LEVOSIMENDAN FOR TREATING PULMONARY HYPERTENSION WITH HEART FAILURE WITH PRESERVED EJECTION FRACTION” (Tenax Therapeutics, Inc., priority 2021, published 2025)",
  "key": {"patients with PH-HFpEF": {"test_system": "patients with PH-HFpEF", "assay": "Serum BNP or NT-proBNP levels, I.V. to oral levosimendan transition study", "type": "in vivo, human", "protocol": "Methods: Patients with PH-HFpEF who were in the open label extension study of the HELP Trial for more than 18 months volunteered to enroll in this transition protocol. Patients were initiated with 1 mg/day of oral levosimendan 5-7 days after the last IV levosimendan infusion. The oral dose was increased every 2 weeks by 1 mg/day to a maximum of 4 mg/day over an 8 week period. The highest daily dose was determined by the investigator based on clinical assessments of symptoms and side effects. The primary safety endpoints were change in resting heart rate and blood pressure from baseline to final study visit and all other adverse events. Secondary efficacy endpoints included change in six-minute walk distance (6MWD), serum brain natriuretic peptide (BNP) or NT-proBNP levels, and quality of life as assessed by Kansas City Cardiomyopathy Questionnaire clinical summary score (KCCQ-CS) and overall summary score (KCCQ-OS) from baseline to final study visit. All comparisons were the baseline and at week 6-8 measurements at the highest daily dose of levosimendan.\n• Change in six-minute walk distance (6MWD) from baseline to final study visit • Change in serum brain natriuretic peptide (BNP) or NT-proBNP levels from baseline to final study visit • Change in quality of life as assessed by Kansas City Cardiomyopathy Questionnaire clinical summary score (KCCQ-CS) and overall summary score (KCCQ-OS) from baseline to final study visit\nAll comparisons were the baseline and at week 6-8 measurements at the highest daily dose of levosimendan."}, "[1]": {"test_system": "phosphodiesterase-3 (PDE3)", "settings": "in vitro; cited from earlier work"}},
  "data": [
    {"molecule": "C[C@@H]1CC(=O)NN=C1c1ccc(NN=C(C#N)C#N)cc1", "note": "[levosimendan]", "values": [
      {"measurement": "change in NT-proBNP", "setting": "patients with PH-HFpEF; n=7, baseline to final study visit, oral levosimendan", "result": "−239.4 (SD 548.1) pg/dl"},
      {"measurement": "change in BNP", "setting": "patients with PH-HFpEF; n=8, baseline to final study visit, oral levosimendan", "result": "−133.3 (SD 136.6) pg/dl"},
      {"measurement": "improvement in BNP/NT-ProBNP biomarker measurements", "setting": "patients with PH-HFpEF; oral levosimendan compared to weekly I.V. infusion", "result": 22, "unit": "%"},
      {"measurement": "PDE3/PDE4 inhibition ratio", "setting": "[1]", "result": "10,000"}
    ]}
  ]
}
